EC50 data for 23 molecules are collected here from patent US20100240630A1, “COMPOUNDS AND THERAPEUTIC USES THEREOF” (Myriad Pharmaceuticals, Inc.., priority 2007, published 2010).

The test has as its system HIV-1 laboratory strain, NL4-3. Briefly: MT-4 cytoprotection assay (WST-1 readout). The settings on record: Human immunodeficiency virus 1, NL43, MT4, 96 h; MT-4 cells infected with HIV-1 NL4-3, MOI 0.0005, four days incubation; read-out: EC50, antiviral activity in the MT4 assay (most active compounds). Format: cell-based. As for the experimental part:
The compounds of the invention can be tested in the following MT-4 assay to detect antiviral activity.
The HTLV-1 transformed T cell line, MT-4, is highly susceptible to HIV-1 infection. Anti-HIV-1 agents were evaluated in this target cell line by protection from the HIV-induced cytopathic effect. In this assay, viability of both HIV-1 and mock-infected cells was assessed in a colorimetric assay that monitors the ability of metabolically-active cells to reduce the tetrazolium salt WST-1. Cytoprotection by antiviral compounds is indicated by the positive readout of increased WST-1 cleavage.
Briefly, exponentially growing MT-4 cells were mock-infected or batch-infected with the HIV-1 laboratory strain, NL4-3, at a multiplicity of infection of 0.0005. Following a two hour infection, the cells were washed to remove unbound virus and plated in the presence of increasing concentrations of compound. After four days incubation, cytoprotection in the infected cells and compound toxicity in mock-infected cells were analyzed using the WST-1 assay.
For the molecule `C=C(C)[C@@H]1CC[C@]2(C#Cc3ccccc3C(=O)O)CC[C@]3(C)C(CCC4[C@@]5(C)CC[C@H](OC(=O)CC(C)(C)C(=O)O)C(C)(C)C5CC[C@]43C)C12` (stereo partly drawn) [Compound 6, 2,2-Dimethyl-succinic acid 4-[(1R,5aR,5bR,9S,11aR)-3a-(2-carboxy-phenylethynyl)-1-isopropenyl-5a,5b,8,8,11a-pentamethyl-icosahydro-cyclopenta[a]chrysen-9-yl]ester], the EC50 (as a rule, the midpoint of the concentration-response curve) is at most 100 nM.

In the case of `C=C(C)[C@@H]1CC[C@]2(C#Cc3sccc3C(=O)O)CC[C@]3(C)C(CCC4[C@@]5(C)CC[C@H](OC(=O)CC(C)(C)C(=O)O)C(C)(C)C5CC[C@]43C)C12` (some centres unmarked) [Compound 9], the EC50 was at most 100 nM.

With `C=C(C)[C@@H]1CC[C@]2(C#Cc3ccsc3C(=O)O)CC[C@]3(C)C(CCC4[C@@]5(C)CC[C@H](OC(=O)CC(C)(C)C(=O)O)C(C)(C)C5CC[C@]43C)C12` (some centres unmarked) [Compound 11], the EC50 was at most 100 nM.

As for `C=C(C)[C@@H]1CC[C@]2(C#Cc3cc(F)ccc3C(=O)O)CC[C@]3(C)C(CCC4[C@@]5(C)CC[C@H](OC(=O)CC(C)(C)C(=O)O)C(C)(C)C5CC[C@]43C)C12` (some centres unmarked) [Compound 13], the EC50 is at most 100 nM.

Consider `C=C(C)[C@@H]1CC[C@]2(C#Cc3ccsc3-c3nnn[nH]3)CC[C@]3(C)C(CCC4[C@@]5(C)CC[C@H](OC(=O)CC(C)(C)C(=O)O)C(C)(C)C5CC[C@]43C)C12` (some centres unmarked) [Compound 18], for which the EC50 was at most 100 nM.

In the case of `C=C(C)[C@@H]1CC[C@]2(C#Cc3cccc(F)c3C(=O)O)CC[C@]3(C)C(CCC4[C@@]5(C)CC[C@H](OC(=O)CC(C)(C)C(=O)O)C(C)(C)C5CC[C@]43C)C12` (some centres unmarked) [Compound 20], the EC50 is at most 100 nM.

In the case of `C=C(C)[C@@H]1CC[C@]2(C#Cc3ccc(F)cc3C(=O)O)CC[C@]3(C)C(CCC4[C@@]5(C)CC[C@H](OC(=O)CC(C)(C)C(=O)O)C(C)(C)C5CC[C@]43C)C12` (some centres unmarked) [Compound 21], the EC50 is at most 100 nM.

Consider `C=C(C)[C@@H]1CC[C@]2(C#Cc3c(C)cccc3C(=O)O)CC[C@]3(C)C(CCC4[C@@]5(C)CC[C@H](OC(=O)CC(C)(C)C(=O)O)C(C)(C)C5CC[C@]43C)C12` (some centres unmarked) [Compound 22], for which the concentration giving a half-maximal response (EC50) is at most 100 nM.

`C=C(C)[C@@H]1CC[C@]2(C#Cc3ccccc3C(N)=O)CC[C@]3(C)C(CCC4[C@@]5(C)CC[C@H](OC(=O)CC(C)(C)C(=O)O)C(C)(C)C5CC[C@]43C)C12` (some centres unmarked) [Compound 27]: the EC50 was at most 100 nM.

`C=C(C)[C@@H]1CC[C@]2(CCc3ccccc3C(=O)O)CC[C@]3(C)C(CCC4[C@@]5(C)CC[C@H](OC(=O)CC(C)(C)C(=O)O)C(C)(C)C5CC[C@]43C)C12` (some centres unmarked) [Compound 28]: the concentration giving a half-maximal response (EC50) was at most 100 nM.

In the case of `C=C(C)[C@@H]1CC[C@]2(C#Cc3ccccc3C(=O)N(C)C)CC[C@]3(C)C(CCC4[C@@]5(C)CC[C@H](OC(=O)CC(C)(C)C(=O)O)C(C)(C)C5CC[C@]43C)C12` (some centres unmarked) [Compound 30], the EC50 is at most 100 nM.

With `C=C(C)[C@@H]1CC[C@]2(C#Cc3ccccc3S(C)(=O)=O)CC[C@]3(C)C(CCC4[C@@]5(C)CC[C@H](OC(=O)CC(C)(C)C(=O)O)C(C)(C)C5CC[C@]43C)C12` (some centres unmarked) [Compound 32], the EC50 is at most 100 nM.

Regarding `C=C(C)[C@@H]1CC[C@]2(C#Cc3cc(Cl)ccc3C(=O)O)CC[C@]3(C)C(CCC4[C@@]5(C)CC[C@H](OC(=O)CC(C)(C)C(=O)O)C(C)(C)C5CC[C@]43C)C12` (some centres unmarked) [Compound 34], the half-maximal effective concentration (EC50) was at most 100 nM.

On to `C=C(C)[C@@H]1CC[C@]2(C#Cc3ccc(Cl)cc3C(=O)O)CC[C@]3(C)C(CCC4[C@@]5(C)CCC(OC(=O)CC(C)(C)C(=O)O)C(C)(C)C5CC[C@]43C)C12` (some centres unmarked) [Compound 35], for which the EC50 is at most 100 nM.

Regarding `C=C(C)[C@@H]1CC[C@]2(C#Cc3cc(C)ccc3C(=O)O)CC[C@]3(C)C(CCC4[C@@]5(C)CC[C@H](OC(=O)CC(C)(C)C(=O)O)C(C)(C)C5CC[C@]43C)C12` (some centres unmarked) [Compound 36], the EC50 is at most 100 nM.

Regarding `C=C(C)[C@@H]1CC[C@]2(C#CC3=C(C(=O)O)CCC3)CC[C@]3(C)C(CCC4[C@@]5(C)CC[C@H](OC(=O)CC(C)(C)C(=O)O)C(C)(C)C5CC[C@]43C)C12` (some centres unmarked) [Compound 41], the 50% effective concentration (EC50) is at most 100 nM.

In the case of `C=C(C)[C@@H]1CC[C@]2(C#CC3=C(C(=O)O)CN(C(=O)OC(C)(C)C)CC3)CC[C@]3(C)C(CCC4[C@@]5(C)CC[C@H](OC(=O)CC(C)(C)C(=O)O)C(C)(C)C5CC[C@]43C)C12` (some centres unmarked) [Compound 42], the EC50 is at most 100 nM.

Regarding `C=C(C)[C@@H]1CC[C@]2(C#CC3=C(C(=O)O)CNCC3)CC[C@]3(C)C(CCC4[C@@]5(C)CC[C@H](OC(=O)CC(C)(C)C(=O)O)C(C)(C)C5CC[C@]43C)C12` (some centres unmarked) [Compound 43], the concentration giving a half-maximal response (EC50) was at most 100 nM.

`C=C(C)[C@@H]1CC[C@]2(C#CC3=C(C(=O)O)CCCC3)CC[C@]3(C)C(CCC4[C@@]5(C)CC[C@H](OC(=O)CC(C)(C)C(=O)O)C(C)(C)C5CC[C@]43C)C12` (some centres unmarked) [Compound 45]: the EC50 was at most 100 nM.

In the case of `C=C(C)[C@@H]1CC[C@]2(C#Cc3ccc(OC)c(OC)c3C(=O)O)CC[C@]3(C)C(CCC4[C@@]5(C)CC[C@H](OC(=O)CC(C)(C)C(=O)O)C(C)(C)C5CC[C@]43C)C12` (some centres unmarked) [Compound 50], the concentration for a half-maximal effect (EC50) is at most 100 nM.

As for `C=C(C)[C@@H]1CC[C@]2(C#Cc3cccc(Cl)c3C(=O)O)CC[C@]3(C)C(CCC4[C@@]5(C)CC[C@H](OC(=O)CC(C)(C)C(=O)O)C(C)(C)C5CC[C@]43C)C12` (some centres unmarked) [Compound 51], the concentration giving a half-maximal response (EC50) was at most 100 nM.

As for `C=C(C)[C@@H]1CC[C@]2(C#Cc3ccncc3C(=O)O)CC[C@]3(C)C(CCC4[C@@]5(C)CC[C@H](OC(=O)CC(C)(C)C(=O)O)C(C)(C)C5CC[C@]43C)C12` (some centres unmarked) [Compound 54], the EC50 is at most 100 nM.

As for `C=C(C)[C@@H]1CC[C@]2(C#Cc3ccccc3C(=O)NS(C)(=O)=O)CC[C@]3(C)C(CCC4[C@@]5(C)CC[C@H](OC(=O)CC(C)(C)C(=O)O)C(C)(C)C5CC[C@]43C)C12` (some centres unmarked) [Compound 55], the EC50 is at most 100 nM.
